The text below walks through data of PMC6767236, “Selective Cannabinoid 2 Receptor Agonists as Potential Therapeutic Drugs for the Treatment of Endotoxin-Induced Uveitis” (Molecules, 2019).

The conditions of series [1]: cited from earlier work; for Hepatocyte Clearance mouse: mouse hepatocytes, * previously published.
For series [2], the target named is CYP2D6 (Homo sapiens, UniProt P10635). Nature of the series: Cytochrome P450 inhibition assay, CYP2D6. It is filed as in vitro ADME.
In series [3] the target is mouse CB2R (Mus musculus, UniProt P47936). As to the kind of experiment: cAMP assay, mouse CB2R (mouse spleen homogenate). It is filed as biochemical. The procedure: The effect of ligands on the forskolin-stimulated accumulation of cAMP was determined using the LANCE ULTRA cAMP kit as per the manufacturer’s instruction (Perkin-Elmer Life Sciences, Boston, MA, USA).
Sequence of mouse CB2R (P47936 whole entry): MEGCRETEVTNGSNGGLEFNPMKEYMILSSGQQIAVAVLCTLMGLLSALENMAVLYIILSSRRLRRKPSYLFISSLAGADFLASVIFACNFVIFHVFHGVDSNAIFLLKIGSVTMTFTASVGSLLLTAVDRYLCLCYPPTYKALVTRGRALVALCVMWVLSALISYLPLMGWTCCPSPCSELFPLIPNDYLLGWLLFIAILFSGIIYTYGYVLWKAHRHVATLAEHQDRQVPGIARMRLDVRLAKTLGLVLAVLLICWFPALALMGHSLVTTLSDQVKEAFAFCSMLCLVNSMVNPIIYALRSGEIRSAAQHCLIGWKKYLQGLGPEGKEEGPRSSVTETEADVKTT
For mouse CB2R cAMP assays, mouse spleen was resuspended in 50 mM of Tris-HCl (pH 7.4), then homogenized with a Potter homogenizer and centrifuged at 1000× g for 10 min. The supernatants were incubated for 30 min with 1-methyl-3-isobutylxanthine (IBMX), then forskolin was added in the presence or absence of ligands. The supernatants were incubated for 30 min in ATP Regeneration Buffer (50 mM HEPES, pH 7.4, 10 mM phosphocreatine, 10 units/mL creatine phosphokinase, 10 μM GTP, 200 μM ATP, 10 mM MgCl2, 250 μM IBMX), and the reaction was stopped by adding lysis buffer. Time-resolved fluorescence was measured with a Victor V Multilabel counter (Perkin-Elmer Life Sciences, Boston, MA, USA).
In general terms: Changes in cAMP serve as a functional read-out for many G protein-coupled receptors.

The conditions of series [4]: phosphate buffer pH 6.5; * previously published; cited from earlier work.
The conditions of series [5]: mouse, * previously published, cited from earlier work; for T1/2 / Tmax: oral, HU308 5 mg/kg, others 3 mg/kg; for F: oral 3 mg/kg.
The target in series [6] is CYP2C9 (Homo sapiens, UniProt P11712). Nature of the series: Cytochrome P450 inhibition assay, CYP2C9. It is filed as in vitro ADME.
Sequence of CYP2C9 (P11712 whole entry): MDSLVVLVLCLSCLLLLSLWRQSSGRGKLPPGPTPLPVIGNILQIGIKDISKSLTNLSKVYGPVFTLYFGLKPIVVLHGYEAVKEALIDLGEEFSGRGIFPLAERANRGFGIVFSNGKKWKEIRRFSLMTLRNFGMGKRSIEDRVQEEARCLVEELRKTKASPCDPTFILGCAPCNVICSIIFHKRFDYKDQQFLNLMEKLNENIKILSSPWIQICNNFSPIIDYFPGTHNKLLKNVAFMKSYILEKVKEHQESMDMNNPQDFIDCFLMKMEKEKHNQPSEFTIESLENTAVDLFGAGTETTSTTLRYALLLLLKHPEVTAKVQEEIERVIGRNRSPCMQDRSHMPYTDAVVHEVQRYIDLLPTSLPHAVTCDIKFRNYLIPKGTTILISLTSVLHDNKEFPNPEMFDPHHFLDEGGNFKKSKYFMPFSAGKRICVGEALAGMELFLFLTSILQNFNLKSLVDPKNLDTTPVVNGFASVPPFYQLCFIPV
In series [7] the test system is human P-gp. To be noted: cited from earlier work; for P-glycoprotein-Mediated Efflux Extraction Ratio human: human P-gp, * previously published.
The nature of series [8]: Chemical stability (aqueous stability assay ASTA). The format is physicochemical. Conditions: aqueous buffer, 37 °C. As for the experimental part:
Chemical Stability (= Aqueous Stability Assay ASTA)
ASTA is a fully automated assay to determine the 2 h stability of a molecule in aqueous conditions, over the pH range 1–10. Five different pH values are used and the solutions are heated at 37 °C. A compound is classified unstable if, after 2 h, less than 90% of the initial concentration can be found. Samples are first prepared on incubation plates and shaken initially for 10 min at 37 °C.
Solutions are then transferred to a filter plate (Millipore MSGVN2250, pore size 0.22 µm) and filtrated into V-bottom plates (from ABGene, AB-0800) that are heat-sealed prior to HPLC analysis. The procedure is performed a second time. However, the incubation time at 37 °C for the second plate is increased by 2 h. Samples are taken at time point 0 and 2 h and analyzed by HPLC. […]

Series [9] concerns leukocyte-endothelial interactions in the iridial microcirculation. Nature of the series: Endotoxin-induced uveitis (EIU), intravital microscopy of iridial microcirculation, WT mice. It is filed as in vivo, BALB/c mice. To be noted: for adherent leukocytes in the iridial microcirculation: WT mice. The procedure:
EIU was induced in BALB/c mice using an intravitreal injection of LPS (2 μL; 125 ng/μL; E. coli 0111:B4 L084M4118V; Sigma-Aldrich, Oakville, ON, Canada) in saline,. Animals were anesthetized with isoflurane (4% induction, 2% maintenance), and were injected intravitreally through the pars plana with sterile saline (control) or LPS solution using a 30G needle and Hamilton syringe (Hamilton Company, Reno, NV, USA) with the assistance of a WILD M37 dissecting microscope (Leitz Canada, Kitchener, ON, Canada). The puncture wound was glued shut with 3M Vetbond Tissue Adhesive (3M Animal Products, St. Paul, MN, USA), and animals were allowed to recover.
IVM was conducted as previously described in Toguri et al. (2014). The iridial microcirculation was imaged 6 h after induction of EIU. Animals were anesthetized with pentobarbital (i.p., 54 mg/kg). Fifteen minutes before initiating IVM, 0.05% Rhodamine 6G (1.5 mL/kg; Sigma-Aldrich) was injected intravenously (i.v.) to visualize leukocytes within the vasculature, while 5% fluorescein isothiocyanate (FITC) conjugated albumin (i.v., 1 mL/kg; Sigma-Aldrich) was used to visualize blood flow. The iridial microcirculation was observed using an Olympus OV100 Small Animal Imaging System (Olympus, Tokyo, Japan), which contains an MT-20 light source, fluorescence excitation from a xenon lamp (150 W) and an excitation filter for rhodamine-6G (excitation 515–560 nm, emission 590 nm). Images were captured in real-time by a black and white DP70 CCD C-mount camera and digitally recorded using HCImage software (Hamamatsu, Herrsching, Germany).
During IVM animals were placed on a heating pad in a stereotactic frame, and Tear-Gel® (Novartis Pharmaceuticals Canada Inc., Dorval, QC, Canada) was applied to their cornea. The iris was divided into four equal quadrants by drawing two superficial lines on the cornea, lengthwise and widthwise. IVM was carried out in each of these quadrants. Two to four videos of each quadrant were recorded for 30 s each. Videos were analyzed off-line without knowledge of the treatment groups. […] Using ImageJ software (National Institute of Health, Bethesda, MD, USA) the number of adherent leukocytes within each vessel segment was calculated by measuring the diameter and length of vessel segment studied, assuming a cylindrical geometry of blood vessels. Adherent leukocytes were expressed as number of cells per mm^2 of endothelial surface. Rolling leukocytes were classified as cells that moved along the endothelium and crossed a predetermined cross-sectional line of the venule. The number of rolling leukocytes was counted for 30 s and used to calculate the number of rolling leukocytes per min. IVM was conducted 6 h after induction of EIU.
RO6871304, RO6871085, or RO6851228 were applied topically on the left eye (1.5% w/v; 5 μL/animal)) directly after injection of LPS in the same eye. Control animals received vehicle (Tocrisolve) (5 μL/animal) only. HU910 was dissolved for i.v. administration in mixed micelles.

Series [10] concerns the target T1, human CB2R (Homo sapiens, UniProt P34972).
T1 construct: bgal (beta-galactosidase fragment of the PathHunter system, named only in the cell line's name); host or cells: CHO-K1 (CHOK1hCB2_bgal)
To be noted: cited from earlier work; for Ki: read-out: hCB2R: Ki.

The conditions of series [11]: * previously published; cited from earlier work.
The mark [12] stands for this setting: pH 1, 2 h, read-out: Chemical Stability in Aqueous Buffer at pH 1 (% remaining after 2 h at 37 °C).
The mark [13] stands for this setting: pH 4, 2 h, read-out: Chemical Stability in Aqueous Buffer at pH 4 (% remaining after 2 h at 37 °C).
Where [14] appears, read: pH 6.5, 2 h, read-out: Chemical Stability in Aqueous Buffer at pH 6.5 (% remaining after 2 h at 37 °C).
Where [15] appears, read: pH 8, 2 h, read-out: Chemical Stability in Aqueous Buffer at pH 8 (% remaining after 2 h at 37 °C).
The mark [16] stands for this setting: pH 10, 2 h, read-out: Chemical Stability in Aqueous Buffer at pH 10 (% remaining after 2 h at 37 °C).
The mark [17] stands for this setting: topical 1.5% w/v (5 µL/animal), 6 h after intravitreal LPS, vs LPS + vehicle.
Where [18] appears, read: [3H]-CP55940 displacement, * previously published.
Setting [19] is: underlying data previously published.

“Also recorded” adds a separate entry of the source. Read-outs that look alike come from different tables or passages of the source. Where only a bound is given, the exact number is not on record here.

T1 sequence (P34972 whole entry, the tested form may be a part): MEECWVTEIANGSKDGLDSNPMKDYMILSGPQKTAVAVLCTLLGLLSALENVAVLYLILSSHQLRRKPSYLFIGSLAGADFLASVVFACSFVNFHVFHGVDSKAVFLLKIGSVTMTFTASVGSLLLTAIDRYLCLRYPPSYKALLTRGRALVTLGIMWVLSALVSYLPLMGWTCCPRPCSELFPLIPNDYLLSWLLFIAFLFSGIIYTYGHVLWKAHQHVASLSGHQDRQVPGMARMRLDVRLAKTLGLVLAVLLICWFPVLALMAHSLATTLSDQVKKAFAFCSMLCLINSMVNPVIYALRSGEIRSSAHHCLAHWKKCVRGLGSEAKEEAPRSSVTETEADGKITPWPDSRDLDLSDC
Sequence of CYP2D6 (P10635 whole entry): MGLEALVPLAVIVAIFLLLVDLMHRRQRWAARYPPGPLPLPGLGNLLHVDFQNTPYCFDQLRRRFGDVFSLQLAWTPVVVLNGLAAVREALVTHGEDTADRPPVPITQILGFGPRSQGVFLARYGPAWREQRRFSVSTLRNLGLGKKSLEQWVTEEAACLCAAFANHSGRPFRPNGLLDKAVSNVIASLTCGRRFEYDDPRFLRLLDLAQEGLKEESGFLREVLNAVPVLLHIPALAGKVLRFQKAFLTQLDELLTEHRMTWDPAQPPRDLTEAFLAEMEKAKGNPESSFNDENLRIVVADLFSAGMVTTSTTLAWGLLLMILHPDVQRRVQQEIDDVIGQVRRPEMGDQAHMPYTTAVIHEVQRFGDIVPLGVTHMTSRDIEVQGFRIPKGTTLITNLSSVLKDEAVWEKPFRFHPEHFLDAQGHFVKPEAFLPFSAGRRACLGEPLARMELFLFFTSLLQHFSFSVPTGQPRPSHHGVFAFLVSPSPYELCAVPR

Broadly, the IC50 is the point on the concentration scale where inhibition reaches its midpoint. One may read the EC50 as the midpoint of the concentration-response curve. The term Tmax denotes the time at which the peak concentration occurs. As to `CCCCCCC(C)(C)c1cc(OC)c([C@H]2C=C(CO)[C@H]3C[C@@H]2C3(C)C)c(OC)c1` [HU308, {(1S,4S,5S)-4-[2,6-Dimethoxy-4-(2-methyloctan-2-yl)phenyl]-6,6-dimethylbicyclo[3.1.1]hept-2-en-2-yl}methanol, reference compound], in series [1], the “Hepatocyte Clearance mouse” value is on record as 4.7 μL/min/Mio cells. Also, in series [2], the IC50 was > 50 µM. In series [3], it took 0.006 µM to reach a half-maximal effect (EC50) and the “mouse CB2R: cAMP efficacy” value turned out to be 99%. Besides, the “Kinetic Solubility” value in series [4] was < 0.75 µg/mL. Further, in series [5], the T1/2 was 3.3 h and the Tmax was 0.5 h. Besides, in series [6], the IC50 is > 50 µM.

The share remaining is the share of the starting amount still present when the sample was taken. What is called Ki is a measure of affinity in units of concentration, obtained from inhibition or displacement. With `CCCCCCC(C)(C)c1cc(OC)c(C2=C[C@H]3CC[C@]2(CO)C3(C)C)c(OC)c1` [HU910, {(1S,4R)-2-[2,6-dimethoxy-4-(2-methyloctan-2-yl)phenyl]-7,7-dimethylbicyclo[2.2.1]hept-2-en-1-yl}methanol, reference compound], the “Hepatocyte Clearance mouse” value in series [1] is 34 μL/min/Mio cells. The IC50 in series [2] (read-out: IC50 CYP2D6) and in series [6] (read-out: IC50 CYP2C9) was > 50 µM in each case. Besides, the “mouse CB2R: cAMP efficacy” value in series [3] is recorded as 99%. The EC50 in series [3] (read-out: mouse CB2R: cAMP EC50) came to 0.003 µM. The “P-glycoprotein-Mediated Efflux Extraction Ratio human” value in series [7] is on record as 2.2. Besides, the “Kinetic Solubility” value in series [4] is < 0.5 µg/mL. Besides, in series [5], the T1/2 is reported as 5.2 h. Moreover, the Tmax in series [5] is reported as 1 h. The share remaining at 2 h stood at 94% in series [8] (setting [12]); 93% in series [8] (setting [13]); 91% in series [8] (setting [14]); 94% in series [8] (setting [15]); 93% in series [8] (setting [16]). The “adherent leukocytes in the iridial microcirculation” value (from here on “adherent leukocytes”) in [9] (3.0 mg/kg i.v. in mixed micelles, 6 h after LPS, vs LPS + vehicle (p < 0.01)) is on record as “significantly reduced leukocyte adhesion”; in series [9] (setting [17]) it was “significantly attenuated”. Further, in [10], the Ki was 0.043 µM.

Regarding `CNC(=O)[C@@H](NC(=O)c1cc(OCC2(C)COC2)c(C2CC2)cn1)C(C)(C)C` [RO6851228, 5-Cyclopropyl-N-[(2S)-3,3-dimethyl-1-(methylamino)-1-oxobutan-2-yl]-4-[(3-methyloxetan-3-yl)methoxy]pyridine-2-carboxamide], the “Hepatocyte Clearance mouse” value in series [1] is listed as 46 μL/min/Mio cells. Moreover, the IC50 in [2] (read-out: IC50 CYP2D6) and in [6] (read-out: IC50 CYP2C9) was > 50 µM throughout. Besides, in series [3], the “hCB2R cAMP EC50/mouse CB2R cAMP EC50 ratio” value was determined as 7. Besides, the “P-glycoprotein-Mediated Efflux Extraction Ratio human” value in [7] was 6.5. For the same compound, in series [11], the “LogD (at pH 7.4)” value is reported as 3.21. The F in [5] is given as 31%. In addition, the T1/2 in series [5] is 1.17 h. Moreover, the Tmax in series [5] is recorded as 0.25 h. Also, the share remaining at 2 h in series [8] (setting [12]) was determined as 93%; in series [8] (setting [13]), 100%; in series [8] (setting [14]) it was 99%; in [8] (setting [15]), 100%; in [8] (setting [16]), 100%. In addition, the “Rolling leukocytes per min” value in series [9] (LPS + topical 1.5% w/v, 6 h after intravitreal LPS, mean ± SD, n = 6) was found to be 0.45 ± 0.47 per min. Further, the “adherent leukocytes” value in series [9] (setting [17]) is recorded as “increased leukocyte-adhesion; also recorded: increases leukocyte adhesion”. Also, in series [10] (setting [18]), the Ki was 0.045 µM. Besides, the “hCB1R Ki/hCB2R Ki” value in [10] (binding selectivity, * previously published) is given as 147 *.

Consider `Cc1nc([C@](C)(CC2CC2)NC(=O)c2cc(OCC(F)(F)F)c(C3CC3)cn2)no1` [RO6871085, 5-Cyclopropyl-N-[(2S)-1-cyclopropyl-2-(5-methyl-1,2,4-oxadiazol-3-yl)propan-2-yl]-4-(2,2,2-trifluoroethoxy)pyridine-2-carboxamide], for which the “Hepatocyte Clearance mouse” value in series [1] is given as 27 μL/min/Mio cells. The “clearance in mouse hepatocytes (class in words)” value in series [1] (setting [19]) is given as “medium”. The IC50 in [2] (read-out: IC50 CYP2D6) is 34 µM; in series [6] (read-out: IC50 CYP2C9), 8 µM. In addition, in series [7], the “P-glycoprotein-Mediated Efflux Extraction Ratio human” value is on record as 1.4. Also, in series [7] (setting [19]), the “P-gp substrate, human” value is given as “not a P-gp substrate”. Also, the “LogD (at pH 7.4)” value in [11] was 3.94. The F in [5] is 68%. Further, in series [5], the T1/2 was 8.42 h. The Tmax in [5] is recorded as 0.5 h. The share remaining at 2 h in series [8] (setting [12]) stood at 99%; in series [8] (setting [13]), 99%; in [8] (setting [14]), 97%; in series [8] (setting [15]), 99%; in series [8] (setting [16]) it was 99%. The “adherent leukocytes” value in [9] (setting [17]) is recorded as “significantly attenuated”. Further, in series [10] (setting [18]), the Ki was 0.076 µM.
